Laboratory results published in patent US6316500A, “Aliphatically unsaturated hydroxy benzoates and preservative compositions thereof” (ISP Investments Inc., priority 1999, dated 2001).

Columns and labels:
A. niger 16404 = assay: Activity test: preservative challenge test in emulsion, A. niger 16404; format: cell-based; conditions: 0.5% preservative in emulsion; for number of colonies per milliliter, 28 days: reinoculated at 21 days
Description: (§1) The emulsion was prepared by separately mixing components in phase A and phase B at 75-80° C. for 15 minutes. The phases were then combined and mixed for another 10 minutes and cooled to 45° C. with stirring. Preservative was then added followed by citric acid to adjust pH to from abut 6.5 to 7.5. Stirring of the resulting mixture was continued until a temperature of 30° C. was reached. The activity tests were carried out using the following microorganisms: A. niger, B. cepacia, C. albicans, E. coli, P. aeruginosa and S. aureus. 50 g aliquots of the test emulsion containing various amounts of the preservative admixture as reported in Tables I-V were inoculated with approximately 10^7 -10^8 of the test organisms. The test samples then were stirred to disperse the challenge inoculum. The samples were incubated and assayed at 48 hours, 7, 14, 21 and 28 days. The assays were performed on 1 g, of the test sample by serially diluting 10^3 to 10^6 of the original concentration. The plating medium for bacteria was Letheen agar and for fungi it was low pH Mycophil agar with Tween 20. Each plated sample was incubated for 48 hours at 37° C. for bacteria, 5 days at 25° C. for mold and 3 days at 25° C. for fungi. After incubation, readings of the number of colonies per milliliter (cfu/ml) were made results were determined, as reported in associated Tables IA-VA. At 21 days the test product was reinoculated with half of the original inoculum.

P. aeruginosa 9027 = assay: Activity test: preservative challenge test in emulsion, P. aeruginosa 9027; format: cell-based; conditions: 0.5% preservative in emulsion; for number of colonies per milliliter, 28 days: reinoculated at 21 days
Description: as §1

S. aureus 6538 = assay: Activity test: preservative challenge test in emulsion, S. aureus 6538; format: cell-based; conditions: 0.5% preservative in emulsion; for number of colonies per milliliter, 28 days: reinoculated at 21 days
Description: as §1

C. albicans 10231 = assay: Activity test: preservative challenge test in emulsion, C. albicans 10231; format: cell-based; conditions: 0.5% preservative in emulsion; for number of colonies per milliliter, 28 days: reinoculated at 21 days
Description: as §1

E. coli 8739 = assay: Activity test: preservative challenge test in emulsion, E. coli 8739; format: cell-based; conditions: 0.5% preservative in emulsion; for number of colonies per milliliter, 28 days: reinoculated at 21 days
Description: as §1

B. cepacia 25416 = assay: Activity test: preservative challenge test in emulsion, B. cepacia 25416; format: cell-based; conditions: 0.5% preservative in emulsion; for number of colonies per milliliter, 28 days: reinoculated at 21 days
Description: as §1

[1] = Partition coefficients (log of oil/water solubility)
Description: A greater water partitioning is indicated by a low log value.

For `CC=CC=CCOC(=O)c1ccc(O)cc1O` [2,4-Hexadienyl-2,4-dihydroxybenzoate, 2,4-Hexadienyl-2,4-Dihydroxybenzoate], the “number of colonies per milliliter, 48 hr” value (A. niger 16404) was 4200 cfu/ml, the “number of colonies per milliliter, 7 days” value (A. niger 16404) was 30 cfu/ml and the “number of colonies per milliliter, 14 days” value (A. niger 16404) was < 10 cfu/ml. The “number of colonies per milliliter, 21 days” value (A. niger 16404) was < 10 cfu/ml, the “number of colonies per milliliter, 28 days” value (A. niger 16404) was < 10 cfu/ml and the “number of colonies per milliliter, 48 hr” value (P. aeruginosa 9027) was < 10 cfu/ml. For the same molecule, the “number of colonies per milliliter, 7 days” value (P. aeruginosa 9027) was < 10 cfu/ml, the “number of colonies per milliliter, 14 days” value (P. aeruginosa 9027) was < 10 cfu/ml and the “number of colonies per milliliter, 21 days” value (P. aeruginosa 9027) was < 10 cfu/ml. The “number of colonies per milliliter, 28 days” value (P. aeruginosa 9027) was < 10 cfu/ml, the “number of colonies per milliliter, 48 hr” value (S. aureus 6538) was < 10 cfu/ml and the “number of colonies per milliliter, 7 days” value (S. aureus 6538) was < 10 cfu/ml. The “number of colonies per milliliter, 14 days” value (S. aureus 6538) was < 10 cfu/ml, the “number of colonies per milliliter, 21 days” value (S. aureus 6538) was < 10 cfu/ml and the “number of colonies per milliliter, 28 days” value (S. aureus 6538) was < 10 cfu/ml. For the same molecule, the “number of colonies per milliliter, 48 hr” value (C. albicans 10231) was < 10 cfu/ml, the “number of colonies per milliliter, 7 days” value (C. albicans 10231) was < 10 cfu/ml and the “number of colonies per milliliter, 14 days” value (C. albicans 10231) was < 10 cfu/ml. For the same molecule, the “number of colonies per milliliter, 21 days” value (C. albicans 10231) was < 10 cfu/ml, the “number of colonies per milliliter, 28 days” value (C. albicans 10231) was < 10 cfu/ml and the “number of colonies per milliliter, 48 hr” value (E. coli 8739) was < 10 cfu/ml. For the same molecule, the “number of colonies per milliliter, 7 days” value (E. coli 8739) was < 10 cfu/ml, the “number of colonies per milliliter, 14 days” value (E. coli 8739) was < 10 cfu/ml and the “number of colonies per milliliter, 21 days” value (E. coli 8739) was < 10 cfu/ml. The “number of colonies per milliliter, 28 days” value (E. coli 8739) was < 10 cfu/ml, the “number of colonies per milliliter, 48 hr” value (B. cepacia 25416) was < 10^6 cfu/ml and the “number of colonies per milliliter, 7 days” value (B. cepacia 25416) was < 10^6 cfu/ml. The “number of colonies per milliliter, 14 days” value (B. cepacia 25416) was < 10^6 cfu/ml, the “number of colonies per milliliter, 21 days” value (B. cepacia 25416) was < 10^6 cfu/ml and the “number of colonies per milliliter, 28 days” value (B. cepacia 25416) was < 10^6 cfu/ml.
For `CC=CC=CCOC(=O)c1ccc(O)cc1` [2,4-Hexadienyl-4-Hydroxybenzoate], the “number of colonies per milliliter, 48 hr” value (A. niger 16404) was 4800 cfu/ml, the “number of colonies per milliliter, 7 days” value (A. niger 16404) was < 10 cfu/ml and the “number of colonies per milliliter, 14 days” value (A. niger 16404) was < 10 cfu/ml. The “number of colonies per milliliter, 21 days” value (A. niger 16404) was < 10 cfu/ml, the “number of colonies per milliliter, 28 days” value (A. niger 16404) was < 10 cfu/ml and the “number of colonies per milliliter, 48 hr” value (P. aeruginosa 9027) was < 10 cfu/ml. For the same molecule, the “number of colonies per milliliter, 7 days” value (P. aeruginosa 9027) was < 10 cfu/ml, the “number of colonies per milliliter, 14 days” value (P. aeruginosa 9027) was < 10 cfu/ml and the “number of colonies per milliliter, 21 days” value (P. aeruginosa 9027) was < 10 cfu/ml. For the same molecule, the “number of colonies per milliliter, 28 days” value (P. aeruginosa 9027) was < 10 cfu/ml, the “number of colonies per milliliter, 48 hr” value (S. aureus 6538) was < 10 cfu/ml and the “number of colonies per milliliter, 7 days” value (S. aureus 6538) was < 10 cfu/ml. For the same molecule, the “number of colonies per milliliter, 14 days” value (S. aureus 6538) was < 10 cfu/ml, the “number of colonies per milliliter, 21 days” value (S. aureus 6538) was < 10 cfu/ml and the “number of colonies per milliliter, 28 days” value (S. aureus 6538) was < 10 cfu/ml. The “number of colonies per milliliter, 48 hr” value (C. albicans 10231) was < 10 cfu/ml, the “number of colonies per milliliter, 7 days” value (C. albicans 10231) was < 10 cfu/ml and the “number of colonies per milliliter, 14 days” value (C. albicans 10231) was < 10 cfu/ml. For the same molecule, the “number of colonies per milliliter, 21 days” value (C. albicans 10231) was < 10 cfu/ml, the “number of colonies per milliliter, 28 days” value (C. albicans 10231) was < 10 cfu/ml and the “number of colonies per milliliter, 48 hr” value (E. coli 8739) was < 10 cfu/ml. For the same molecule, the “number of colonies per milliliter, 7 days” value (E. coli 8739) was < 10 cfu/ml, the “number of colonies per milliliter, 14 days” value (E. coli 8739) was < 10 cfu/ml and the “number of colonies per milliliter, 21 days” value (E. coli 8739) was < 10 cfu/ml. For the same molecule, the “number of colonies per milliliter, 28 days” value (E. coli 8739) was < 10 cfu/ml, the “number of colonies per milliliter, 48 hr” value (B. cepacia 25416) was < 10^6 cfu/ml and the “number of colonies per milliliter, 7 days” value (B. cepacia 25416) was < 10^6 cfu/ml. For the same molecule, the “number of colonies per milliliter, 14 days” value (B. cepacia 25416) was < 10^6 cfu/ml, the “number of colonies per milliliter, 21 days” value (B. cepacia 25416) was < 10^6 cfu/ml and the “number of colonies per milliliter, 28 days” value (B. cepacia 25416) was < 10^6 cfu/ml.
For `CCCCOC(=O)c1ccc(O)cc1` [Parahydroxy butyl benzoate], the “Log P” value [1] was 3.57.
In the case of `CCOC(=O)c1ccc(O)cc1` [Parahydroxy ethyl benzoate], the “Log P” value [1] is reported as 2.47.
